In assay [1] the target is T1, menin/MLL (terbium chelate-labeled menin, FITC-MBM1 peptide) (Homo sapiens, UniProt O00255, T541A).
T1 construct: Menin (a.a 1-610-6xhis tag)
T1 sequence (O00255 with tags, fused parts or gaps T541A): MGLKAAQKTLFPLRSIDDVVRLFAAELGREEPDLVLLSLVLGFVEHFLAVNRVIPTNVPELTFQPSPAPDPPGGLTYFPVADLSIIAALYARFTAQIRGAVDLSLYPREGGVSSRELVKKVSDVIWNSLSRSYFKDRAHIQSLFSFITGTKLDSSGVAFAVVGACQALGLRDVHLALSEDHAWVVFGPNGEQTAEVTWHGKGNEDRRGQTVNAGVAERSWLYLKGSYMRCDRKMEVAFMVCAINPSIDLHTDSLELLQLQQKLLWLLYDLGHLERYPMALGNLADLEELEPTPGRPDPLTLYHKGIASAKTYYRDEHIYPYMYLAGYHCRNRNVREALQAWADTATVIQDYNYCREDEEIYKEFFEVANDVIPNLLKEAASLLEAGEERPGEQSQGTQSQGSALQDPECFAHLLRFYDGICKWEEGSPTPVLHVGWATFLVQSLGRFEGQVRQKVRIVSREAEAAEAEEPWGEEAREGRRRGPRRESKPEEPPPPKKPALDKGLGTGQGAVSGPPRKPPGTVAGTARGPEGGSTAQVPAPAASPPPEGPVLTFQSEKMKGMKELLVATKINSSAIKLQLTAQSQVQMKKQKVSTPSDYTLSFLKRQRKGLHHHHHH
The assay is described as follows: Menin/MLL homogenous time-resolved fluorescence (HTRF) assay. It counts as binding. Conditions: 30 min incubation. In a few lines: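 Tb-cryptate menin (1-610, 6xHis) 200 pM + cmpd, 30 min RT; + FITC-MBM1 75 nM, 15 min RT. 40 mM Tris pH 7.5, 50 mM NaCl, 1 mM DTT, 0.05% Pluronic F-127, 0.5% DMSO. HTRF 520/490; 11-pt 4-fold from 10 μM; IC50 fit.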
Background: TR-FRET usually uses a lanthanide donor and a delayed reading to cut background.

Another assay relates to MOLM14 cells. The assay is described as follows: Proliferation assay, spheroid-like growth, MOLM14 (MLL-AF9 rearranged). Type of assay: cell-based, human. Conditions: Homo sapiens, MOLM-14, 192 h, 8 days, confluence as measure of spheroid size, read-out: spheroid assay_OneTime MOLM14 IC50. In a few lines:
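200 MOLM14 or 300 KO-52 cells/well, ultra-low attachment, compound dilutions, DMSO 0.3%; 8 d, 37 °C, 5% CO2. Read: live-cell imaging confluence (spheroid size) day 8. Absolute IC50, min 0%/max 100% fixed, variable slope.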

14 compounds from US20240417405A1, “Substituted Spiro Derivatives” (Janssen Pharmaceutica NV, priority 2021, published 2024) can be followed below.

`CNC(=O)c1sc(N[C@H]2C[C@@H]([C@@H](C(C)C)N3CC4(CCN(c5ncnnc5Oc5ccc(F)cc5-c5cncnc5C5CC5)C4)C3)C2)nc1C` (single isomer, unassigned) [Compound 443]: the half-maximal inhibitory concentration (IC50) (commonly the point on the concentration scale where inhibition reaches its midpoint) in assay [1] is 0.08 nM; with MOLM14 cells, 4 nM.

Consider `Cc1nnc(-c2cnc(N[C@H]3C[C@@H]([C@@H](C(C)C)N4CC5(CCN(c6ncnnc6Oc6ccc(F)cc6-c6cncnc6C6CC6)C5)C4)C3)s2)o1` (single isomer, unassigned) [Compound 445], for which the results for the IC50 (in assay [1]; in the assay on MOLM14 cells) were 0.19 nM and 6 nM, respectively.

As for `CC(C)[C@H]([C@H]1C[C@@H](Nc2ncc(C(N)=O)s2)C1)N1CC2(CCN(c3ncnnc3Oc3ccc(F)cc3-c3cncnc3C3CC3)C2)C1` (single isomer, unassigned) [Compound 446], the IC50 in assay [1] is around 0.1 nM; in the assay on MOLM14 cells it was 7 nM.

Turning to `CC(C)[C@H]([C@H]1C[C@@H](Nc2nnc(N)s2)C1)N1CC2(CCN(c3ncnnc3Oc3ccc(F)cc3-c3cncnc3C3CC3)C2)C1` (single isomer, unassigned) [Compound 447], the figures for the IC50 (in assay [1]; with MOLM14 cells) were 0.15 nM and 4 nM, respectively.

As for `CC(C)[C@H]([C@H]1C[C@@H](Nc2n[nH]c3ncccc23)C1)N1CC2(CCN(c3ncnnc3Oc3ccc(F)cc3-c3cncnc3C3CC3)C2)C1` (single isomer, unassigned) [Compound 448], the 50% inhibitory concentration (IC50) was 0.18 nM in assay [1] and 4.6 nM in the assay with MOLM14 cells.

As for `CNC(=O)c1ncc(N[C@H]2C[C@@H]([C@@H](C(C)C)N3CC4(CCN(c5ncnnc5Oc5ccc(F)cc5-c5cncnc5C5CC5)C4)C3)C2)s1` (single isomer, unassigned) [Compound 449], the IC50 is 0.09 nM in assay [1] and 8.4 nM in the assay on MOLM14 cells.

Take `CNC(=O)c1cccc(N[C@H]2C[C@@H](C(C(C)C)N3CC4(CCN(c5ncnnc5Oc5ccc(F)cc5-c5cncnc5C5CC5)C4)C3)C2)n1` (single isomer, unassigned) [Compound 450]: the figures for the IC50 (in assay [1]; with MOLM14 cells) were 0.08 nM and 7 nM, respectively.

As to `CNC(=O)c1cc(N[C@H]2C[C@@H]([C@@H](C(C)C)N3CC4(CCN(c5ncnnc5Oc5ccc(F)cc5-c5cncnc5C5CC5)C4)C3)C2)ccn1` (single isomer, unassigned) [Compound 451], the IC50 in assay [1] was found to be 0.15 nM; with MOLM14 cells it was 11 nM.

In the case of `CNC(=O)c1ccnc(N[C@H]2C[C@@H]([C@@H](C(C)C)N3CC4(CCN(c5ncnnc5Oc5ccc(F)cc5-c5cncnc5C5CC5)C4)C3)C2)n1` (single isomer, unassigned) [Compound 452], the IC50 stood at 0.11 nM in assay [1] and 20 nM with MOLM14 cells.

As for `CNC(=O)c1csc(N[C@H]2C[C@@H]([C@@H](C(C)C)N3CC4(CCN(c5ncnnc5Oc5ccc(F)cc5-c5cncnc5C5CC5)C4)C3)C2)n1` (single isomer, unassigned) [Compound 453], the IC50 was 0.05 nM in assay [1] and 6 nM in the assay with MOLM14 cells.

For `CC(=O)Nc1nnc(N[C@H]2C[C@@H]([C@@H](C(C)C)N3CC4(CCN(c5ncnnc5Oc5ccc(F)cc5-c5cncnc5C5CC5)C4)C3)C2)s1` (single isomer, unassigned) [Compound 454], the concentration for half-maximal inhibition (IC50) is 0.17 nM in assay [1] and 13 nM with MOLM14 cells.

In the case of `CNC(=O)c1cnc(N[C@H]2C[C@@H]([C@H](C)N3CC4(CCN(c5ncnnc5Oc5ccc(F)cc5-c5cncnc5C5CC5)C4)C3)C2)s1` (single isomer, unassigned) [Compound 455], the figures for the half-maximal inhibitory concentration (IC50) (in assay [1]; with MOLM14 cells) were 0.14 nM and 24 nM, respectively.

As to `CC(C)C([C@H]1C[C@@H](Nc2n[nH]c3ncncc23)C1)N1CC2(CCN(c3ncnnc3Oc3ccc(F)cc3-c3cncnc3C3CC3)C2)C1` (single isomer, unassigned) [Compound 458], the half-inhibitory concentration (IC50) was determined as 0.16 nM in assay [1] and 27 nM in the assay on MOLM14 cells.

Turning to `CNC(=O)c1oc(N[C@H]2C[C@@H](C(C(C)C)N3CC4(CCN(c5ncnnc5Oc5ccc(F)cc5-c5cncnc5C5CC5)C4)C3)C2)nc1C` (single isomer, unassigned) [Compound 460], the IC50 in assay [1] worked out at 0.07 nM; in the assay on MOLM14 cells, 11 nM.
